The results in this text go back to patent publication US20200010482A1, “INHIBITORS OF BETA SECRETASE” (Janssen Pharmaceutica NV, priority 2017, published 2020).

Assay [1] addresses β-secretase I (BACE1) (Homo sapiens, UniProt P56817). Put plainly: Biochemical assay, automated (CyclOps), BACE1. The following applies: automated CyclOps bioassay. On the procedure: (§1) Unless otherwise indicated all biochemicals were purchased from Sigma-Aldrich Chemical Company, Poole, Dorset, U.K. and non-aqueous solvents, of analytical or higher grade, were purchased from ThermoFisher Scientific, Loughborough, U.K. MilliQ water (Elix 5 & MilliQ Gradient; Merck Millipore) was used as the base aqueous solvent to make up the biological buffers. Base assay buffer was prepared by adding a 50 mM solution of citric acid (1.00244; Merck Biosciences) to stirring solution of 50 mM trisodium citrate (1.06448; Merck Biosciences) until a final pH of 5.0 was achieved. […] All assays were routinely carried out in 384-well assay plates (Costar 4514; Corning Life Sciences) and incubated at 37±1° C. for 60 min. prior to reading the endpoint fluorescence intensity. The (7-methoxyl coumarin-4-yl)acetic acid based substrate β-secretase substrate VI (M2465; Bachem) was prepared as a 1 mM stock in 100% DMSO (D/4121/PB08; ThermoFisher). Assay buffer was prepared by adding DMSO to base buffer to a final concentration of 1% (vol./vol.). β-secretase I (18.64 μM; “BACE1”) and β-secretase II (4.65 μM; “BACE2”) were obtained from Janssen Pharmaceutica, Beerse, Belgium and were stored as frozen aliquots (˜20 μl) and thawed as required.
(§2) Typically 12.5 μl of assay buffer was dispensed to rows B to P of the assay plate. To row A was added 18.75 μl of test compound diluted appropriately in assay buffer. A 6.25 μl aliquot of sample was transferred from row A to row B and the sample mixed three times by pipette. The process was repeated down the plate and 6.25 μl of solution discarded at row N post-mix. Rows O and P were designated as the positive and negative controls. To row P was added 6.25 μl base buffer. To rows A to O was added 6.25 μl enzyme (freshly prepared 40 nM BACE1 or 40 nM BACE2) diluted in base buffer. To initiate the assay 6.25 μl of freshly prepared 80 μM substrate, made up by diluting the 1 mM in 100% DMSO solution into HPLC grade water (Optima W6-212; ThermoFisher), was added to all the wells. The assay plate was covered and incubated at 37±1° C. for 60 min. The fluorescence intensity of the wells was read at 360/405 nm (excitation/emission) utilising a nine reads per well protocol (50 ms integration; density of 3, 0.25 mm spacing; SpectraMAX Paradigm plate reader; TUNE cartridge; SoftMax Pro v 6.3 software; Molecular Devices UK Ltd., Wokingham, Berkshire, UK) and outputting the median value of the nine reads as a text file. Data analysis was carried out using Prism software v 6.3 (GraphPad Inc., San Diego, Calif., USA) using the non-linear regression analysis models supplied by the vendor. For IC50 determinations the four parameter logistic variable slope model was used to fit the raw fluorescence intensity data with the ‘bottom’ fixed to the negative control.
(§3) The CyclOps bioassay module consisted of a fraction collection station, a reagent station, liquid handling robotics, plate store and an integrated plate reader (SpectraMAX Paradigm, TUNE cartridge, SoftMax Pro v 6.3; Molecular Devices). The fraction collection station composed of a 384 well collection plate (P-384-240SQ-C; Axygen, Union City, Calif., USA) mounted on a H-portal carriage (Festo AG & Co. KG, Esslingen, Germany), a syringe drive and a two-way six port injection valve fitted with a 200 μl loop (VICI AG International, Schenkon Switzerland). The output of the injection valve was addressable to all the positions of a 384 well collection plate. The reagent station consisted of hydraulically cooled (10-12° C.) aluminium segments; each manufactured to house a SBS microtiter plate footprint. Independent addressable reagent stations were housed within these sections. Where required, custom aluminium housings were used to accommodate standard laboratory plastic ware (e.g. Eppendorf tubes, Falcon tubes, etc.). As and when required the reagent reservoirs were covered and the lids contained holes through which the Teflon-coated probe could access solutions. […]

Assay [2] addresses T1, β-secretase II (BACE2) (Homo sapiens, UniProt Q9Y5Z0).
T1 sequence (Q9Y5Z0 63-518): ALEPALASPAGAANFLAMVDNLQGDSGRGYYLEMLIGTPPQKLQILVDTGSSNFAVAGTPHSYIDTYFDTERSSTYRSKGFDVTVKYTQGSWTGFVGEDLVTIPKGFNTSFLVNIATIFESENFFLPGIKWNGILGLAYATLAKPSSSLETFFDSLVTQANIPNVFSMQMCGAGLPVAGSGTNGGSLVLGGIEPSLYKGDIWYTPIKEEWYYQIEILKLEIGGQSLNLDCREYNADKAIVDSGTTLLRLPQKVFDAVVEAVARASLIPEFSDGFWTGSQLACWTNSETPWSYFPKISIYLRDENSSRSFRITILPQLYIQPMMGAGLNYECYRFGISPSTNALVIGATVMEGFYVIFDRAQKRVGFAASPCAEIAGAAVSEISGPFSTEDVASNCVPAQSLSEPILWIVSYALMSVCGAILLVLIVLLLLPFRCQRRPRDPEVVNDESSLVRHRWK
Put plainly: Biochemical assay, automated (CyclOps), BACE2. To be noted: automated CyclOps bioassay. On the procedure: as §1, §2, §3

β-secretase I (BACE1), sequence (P56817 46-501): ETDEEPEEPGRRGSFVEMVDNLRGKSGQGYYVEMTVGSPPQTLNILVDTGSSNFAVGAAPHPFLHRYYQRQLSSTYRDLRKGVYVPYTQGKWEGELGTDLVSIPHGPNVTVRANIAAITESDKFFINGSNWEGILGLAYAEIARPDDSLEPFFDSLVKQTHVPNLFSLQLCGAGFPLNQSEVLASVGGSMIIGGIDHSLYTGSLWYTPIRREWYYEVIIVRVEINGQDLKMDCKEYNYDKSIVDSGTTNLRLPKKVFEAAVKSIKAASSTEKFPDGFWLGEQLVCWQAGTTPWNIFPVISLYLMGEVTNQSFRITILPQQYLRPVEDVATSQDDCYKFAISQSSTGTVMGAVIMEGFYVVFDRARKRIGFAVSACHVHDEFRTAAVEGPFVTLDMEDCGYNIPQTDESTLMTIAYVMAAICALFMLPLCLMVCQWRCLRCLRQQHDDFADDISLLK

As to `COc1ncc(-c2ccccc2F)c2c1C[C@]1(c3ccc(F)cc3F)N=C(N)SC[C@@H]1C2` [Compound 50], the “AUTOMATED ASSAY BACE1 pIC50” value in assay [1] is on record as 8.28. The “AUTOMATED ASSAY BACE2 pIC50” value in assay [2] was found to be 7.96.
The matching figures for `COc1ncc(-c2ccccc2C)c2c1C[C@]1(c3cc(OCC4CCC4)ccc3F)N=C(N)SC[C@@H]1C2` [Compound 142]: 8.4 and 7.28.
As for `COc1ncc(-c2ccc(F)cc2C)c2c1C[C@]1(c3ccc(F)cc3F)N=C(N)SC[C@@H]1C2` [Compound 58], the “AUTOMATED ASSAY BACE1 pIC50” value in assay [1] was found to be 7.77. Besides, the “AUTOMATED ASSAY BACE2 pIC50” value in assay [2] was determined as 6.99.
The matching figures for `COc1ncc(-c2cccc3c2OCCC3)c2c1C[C@]1(c3ccc(F)cc3F)N=C(N)SC[C@@H]1C2` [Compound 128]: 7.01 and 6.19.
With `COc1ncc(-c2coc3ccccc23)c2c1C[C@]1(c3ccc(F)cc3F)N=C(N)SC[C@@H]1C2` [Compound 130], the “AUTOMATED ASSAY BACE1 pIC50” value in assay [1] is listed as 7.4. In addition, the “AUTOMATED ASSAY BACE2 pIC50” value in assay [2] amounted to 7.03.
As to `COc1ncc(-c2ccccc2F)c2c1C[C@]1(c3cc(OCCC#N)ccc3F)N=C(N)SC[C@@H]1C2` [Compound 156], the “AUTOMATED ASSAY BACE1 pIC50” value in assay [1] amounted to 6.32. The “AUTOMATED ASSAY BACE2 pIC50” value in assay [2] came to 6.36.
Turning to `COc1ncc(-c2cccc(C)c2C)c2c1C[C@]1(c3ccc(F)cc3F)N=C(N)SC[C@@H]1C2` [Compound 56], the “AUTOMATED ASSAY BACE1 pIC50” value in assay [1] is recorded as 8.11. In addition, the “AUTOMATED ASSAY BACE2 pIC50” value in assay [2] turned out to be 7.63.
For the compound `COc1ncc(-c2c(C)noc2C)c2c1C[C@]1(c3cc(OCCC4CCCC4)ccc3F)N=C(N)SC[C@@H]1C2` [Compound 150], the “AUTOMATED ASSAY BACE1 pIC50” value in assay [1] is 6.12. The “AUTOMATED ASSAY BACE2 pIC50” value in assay [2] was found to be 5.3.
`COc1ncc(-c2cccc3cnn(C)c23)c2c1C[C@]1(c3ccc(F)cc3F)N=C(N)SC[C@@H]1C2` [Compound 127]: the “AUTOMATED ASSAY BACE1 pIC50” value in assay [1] was determined as 6.77. The “AUTOMATED ASSAY BACE2 pIC50” value in assay [2] worked out at 5.6.
As for `COc1ncc(-c2cc(C(F)(F)F)ccc2F)c2c1C[C@]1(c3ccc(F)cc3F)N=C(N)SC[C@@H]1C2` [Compound 51], in assay [1], the “AUTOMATED ASSAY BACE1 pIC50” value is 7.34. Moreover, the “AUTOMATED ASSAY BACE2 pIC50” value in assay [2] is given as 6.83.
The like results for `COc1ncc(-c2c(C)noc2C)c2c1C[C@]1(c3cc(OCC4CCC4)ccc3F)N=C(N)SC[C@@H]1C2` [Compound 155] were, in that order, 7.77 and 6.12.
As for `COc1cc(C)c(-c2cnc(OC)c3c2C[C@H]2CSC(N)=N[C@@]2(c2cc(OCC4CCOCC4)ccc2F)C3)cn1` [Compound 152], the “AUTOMATED ASSAY BACE1 pIC50” value in assay [1] is given as 7.52. Also, the “AUTOMATED ASSAY BACE2 pIC50” value in assay [2] turned out to be 5.65.
The matching figures for `COc1ncc(-c2ccccc2)c2c1C[C@]1(c3cc(OCc4ccc(F)cc4)ccc3F)N=C(N)SC[C@@H]1C2` [Compound 154]: 7.51 and 7.88.
The like results for `COc1ncc(-c2ccc(Cl)c(C)c2)c2c1C[C@]1(c3ccc(F)cc3F)N=C(N)SC[C@@H]1C2` [Compound 59] were, in that order, 7.68 and 7.15.
As for `COc1ncc(-c2c(C)noc2C)c2c1C[C@]1(c3cc(OCc4c(C)noc4C)ccc3F)N=C(N)SC[C@@H]1C2` [Compound 153], the “AUTOMATED ASSAY BACE1 pIC50” value in assay [1] was 6.73. In addition, the “AUTOMATED ASSAY BACE2 pIC50” value in assay [2] was 6.64.
The like results for `COc1ncc(-c2cc(F)cc(F)c2)c2c1C[C@]1(c3ccc(F)cc3F)N=C(N)SC[C@@H]1C2` [Compound 54] were, in that order, 8.54 and 8.42.
On to `COc1ncc(-c2ccccc2)c2c1C[C@]1(c3cc(OCc4ccccc4)ccc3F)N=C(N)SC[C@@H]1C2` [Compound 138], for which the values for the IC50 in assay [1] (read-out: AUTOMATED ASSAY BACE1 pIC50 (converted)) and in assay [2] (read-out: AUTOMATED ASSAY BACE2 pIC50 (converted)) were 61.7 nM and 32.4 nM, respectively.
Consider `COc1ncc(-c2c(C)noc2C)c2c1C[C@]1(c3cc(OCCOC4CCCCC4)ccc3F)N=C(N)SC[C@@H]1C2` [Compound 148], for which the “AUTOMATED ASSAY BACE1 pIC50” value in assay [1] is recorded as 6. In addition, the “AUTOMATED ASSAY BACE2 pIC50” value in assay [2] was 5.19.
Turning to `COc1cccc(COc2ccc(F)c([C@]34Cc5c(OC)ncc(-c6c(C)noc6C)c5C[C@H]3CSC(N)=N4)c2)c1` [Compound 145], the “AUTOMATED ASSAY BACE1 pIC50” value in assay [1] is 6.89. Further, the “AUTOMATED ASSAY BACE2 pIC50” value in assay [2] was 5.52.
Turning to `COc1ncc(-c2c(C)noc2C)c2c1C[C@]1(c3cc(OCCC4CCCCC4)ccc3F)N=C(N)SC[C@@H]1C2` [Compound 149], the “AUTOMATED ASSAY BACE1 pIC50” value in assay [1] amounted to 5.09. Further, in assay [2], the “AUTOMATED ASSAY BACE2 pIC50” value is given as 5.17.
